From PubChem BioAssay AID1259407 (Chemical Carcinogenesis Research Information System (CCRIS), 2018)
Activity calls are given as the source filed them. How the calls were made is not given here.

Tested on: CCRIS mutagenicity, Ames/micronucleus/aberration tests
Assay: CCRIS mutagenicity studies
[1] = Test System: AMES SALMONELLA TYPHIMURIUM, Strain/Indicator: TA98, Metabolic Activation: NONE, Method: PREINCUBATION
[2] = Test System: AMES SALMONELLA TYPHIMURIUM, Strain/Indicator: TA100, Metabolic Activation: NONE, Method: PREINCUBATION
[3] = Test System: AMES SALMONELLA TYPHIMURIUM, Strain/Indicator: TA100, Metabolic Activation: NONE, Method: STANDARD PLATE
[4] = Test System: AMES SALMONELLA TYPHIMURIUM, Strain/Indicator: TA1537, Metabolic Activation: NONE, Method: STANDARD PLATE

With c1ccc2c(c1)-c1ccc3ccccc3c1C1OC21 (stereo not drawn) the mutagenic call [1] was “active; positive”, the mutagenic call (Test System: AMES SALMONELLA TYPHIMURIUM, Strain/Indicator: TA98, Metabolic Activation: NONE, Method: PREINCUBATION (KCL-CONTAINING MEDIUM)) was “active; positive” and the mutagenic call (Test System: AMES SALMONELLA TYPHIMURIUM, Strain/Indicator: TA98, Metabolic Activation: NONE, Method: PREINCUBATION (KCL-FREE MEDIUM)) was “active; positive”. For the same compound, the mutagenic call [2] was “active; positive”, the mutagenic call (Test System: AMES SALMONELLA TYPHIMURIUM, Strain/Indicator: TA100, Metabolic Activation: NONE, Method: PREINCUBATION (KCL-CONTAINING OR KCL-FREE MEDIA)) was “active; positive” and the mutagenic call [3] was “active; positive”. For the same compound, the mutagenic call (Test System: AMES SALMONELLA TYPHIMURIUM, Strain/Indicator: TA100, Metabolic Activation: RAT, LIVER, S-9, AROCLOR 1254, Method: STANDARD PLATE) was “inactive; negative”, the mutagenic call [4] was “active; positive” and the mutagenic call (Test System: CHINESE HAMSTER V-79, Strain/Indicator: V-79/6-THIOGUANINE, Metabolic Activation: NONE, Method: STANDARD PLATE) was “active; positive”.

Oc1ccccc1O was tested, and the mutagenic call (End Point: IN VITRO CHROMOSOMAL ABERRATIONS, Test System: CHINESE HAMSTER V79 CELLS, Metabolic Activation: NONE) was “active; positive at ph 7.4 and 8.0”, the mutagenic call (End Point: IN VITRO MICRONUCLEUS, Test System: CHINESE HAMSTER LUNG (CHL)/IU CELLS, Metabolic Activation: NONE) was “active; positive” and the mutagenic call (Test System: AMES SALMONELLA TYPHIMURIUM, Strain/Indicator: TA97, Metabolic Activation: NONE, Method: PREINCUBATION) was “inactive; negative”. For the same compound, the mutagenic call (Test System: AMES SALMONELLA TYPHIMURIUM, Strain/Indicator: TA97, Metabolic Activation: RAT, LIVER, S-9, AROCLOR 1254, Method: PREINCUBATION) was “inactive; negative”, the mutagenic call (Test System: AMES SALMONELLA TYPHIMURIUM, Strain/Indicator: TA97, Metabolic Activation: RAT, LIVER, S-9, PHENOBARBITAL, Method: PREINCUBATION) was “inactive; negative” and the mutagenic call (Test System: AMES SALMONELLA TYPHIMURIUM, Strain/Indicator: TA98, Metabolic Activation: HAMSTER, LIVER, S-9, AROCLOR 1254, Method: PREINCUBATION) was “inactive; negative”. The mutagenic call (Test System: AMES SALMONELLA TYPHIMURIUM, Strain/Indicator: TA98, Metabolic Activation: NONE) was “inactive; negative”, the mutagenic call [1] was “inactive; negative” and the mutagenic call (Test System: AMES SALMONELLA TYPHIMURIUM, Strain/Indicator: TA98, Metabolic Activation: RAT, LIVER, S-9, AROCLOR 1254, Method: PREINCUBATION) was “inactive; negative”. For the same compound, the mutagenic call (Test System: AMES SALMONELLA TYPHIMURIUM, Strain/Indicator: TA98, Metabolic Activation: RAT, LIVER, S-9, PHENOBARBITAL, Method: PREINCUBATION) was “inactive; negative”, the mutagenic call (Test System: AMES SALMONELLA TYPHIMURIUM, Strain/Indicator: TA98, Metabolic Activation: S-9) was “inactive; negative” and the mutagenic call (Test System: AMES SALMONELLA TYPHIMURIUM, Strain/Indicator: TA100, Metabolic Activation: HAMSTER, LIVER, S-9, AROCLOR 1254, Method: PREINCUBATION) was “inactive; negative”. The mutagenic call (Test System: AMES SALMONELLA TYPHIMURIUM, Strain/Indicator: TA100, Metabolic Activation: NONE, Method: FLUCTUATION TEST) was “active; positive”, the mutagenic call [2] was “inactive; negative” and the mutagenic call (Test System: AMES SALMONELLA TYPHIMURIUM, Strain/Indicator: TA100, Metabolic Activation: RAT, LIVER, S-9, AROCLOR 1254, Method: PREINCUBATION) was “inactive; negative”. For the same compound, the mutagenic call (Test System: AMES SALMONELLA TYPHIMURIUM, Strain/Indicator: TA100, Metabolic Activation: RAT, LIVER, S-9, PCB, Method: FLUCTUATION TEST) was “active; positive”, the mutagenic call (Test System: AMES SALMONELLA TYPHIMURIUM, Strain/Indicator: TA100, Metabolic Activation: RAT, LIVER, S-9, PHENOBARBITAL, Method: PREINCUBATION) was “inactive; negative” and the mutagenic call (Test System: AMES SALMONELLA TYPHIMURIUM, Strain/Indicator: TA102, Metabolic Activation: NONE, Method: PREINCUBATION) was “inactive; negative”. For the same compound, the mutagenic call (Test System: AMES SALMONELLA TYPHIMURIUM, Strain/Indicator: TA102, Metabolic Activation: RAT, LIVER, S-9, AROCLOR 1254, Method: PREINCUBATION) was “inactive; negative”, the mutagenic call (Test System: AMES SALMONELLA TYPHIMURIUM, Strain/Indicator: TA104, Metabolic Activation: NONE, Method: PREINCUBATION) was “inactive; negative” and the mutagenic call (Test System: AMES SALMONELLA TYPHIMURIUM, Strain/Indicator: TA104, Metabolic Activation: RAT, LIVER, S-9, AROCLOR 1254, Method: PREINCUBATION) was “inactive; negative”. For the same compound, the mutagenic call (Test System: AMES SALMONELLA TYPHIMURIUM, Strain/Indicator: TA1535, Metabolic Activation: HAMSTER, LIVER, S-9, AROCLOR 1254, Method: PREINCUBATION) was “inactive; negative”, the mutagenic call (Test System: AMES SALMONELLA TYPHIMURIUM, Strain/Indicator: TA1535, Metabolic Activation: NONE, Method: PREINCUBATION) was “inactive; negative” and the mutagenic call (Test System: AMES SALMONELLA TYPHIMURIUM, Strain/Indicator: TA1535, Metabolic Activation: RAT, LIVER, S-9, AROCLOR 1254, Method: PREINCUBATION) was “inactive; negative”. The mutagenic call (Test System: AMES SALMONELLA TYPHIMURIUM, Strain/Indicator: TA1537, Metabolic Activation: HAMSTER, LIVER, S-9, AROCLOR 1254, Method: PREINCUBATION) was “inactive; negative”, the mutagenic call (Test System: AMES SALMONELLA TYPHIMURIUM, Strain/Indicator: TA1537, Metabolic Activation: NONE, Method: PREINCUBATION) was “inactive; negative” and the mutagenic call (Test System: AMES SALMONELLA TYPHIMURIUM, Strain/Indicator: TA1537, Metabolic Activation: RAT, LIVER, S-9, AROCLOR 1254, Method: PREINCUBATION) was “inactive; negative”. For the same compound, the mutagenic call (Test System: Ames Salmonella typhimurium, Strain/Indicator: TA98, Metabolic Activation: None, Method: Preincubation) was “inactive; negative”, the mutagenic call (Test System: Ames Salmonella typhimurium, Strain/Indicator: TA98, Metabolic Activation: Rat, Liver, S9, Sodium phenobarbital and 5,6-benzoflavone, Method: Preincubation) was “inactive; negative” and the mutagenic call (Test System: Ames Salmonella typhimurium, Strain/Indicator: TA100, Metabolic Activation: None, Method: Preincubation) was “inactive; negative”. For the same compound, the mutagenic call (Test System: Ames Salmonella typhimurium, Strain/Indicator: TA100, Metabolic Activation: Rat, Liver, S9, Sodium phenobarbital and 5,6-benzoflavone, Method: Preincubation) was “inactive; negative”, the mutagenic call (Test System: Ames Salmonella typhimurium, Strain/Indicator: TA1535, Metabolic Activation: None, Method: Preincubation) was “inactive; negative” and the mutagenic call (Test System: Ames Salmonella typhimurium, Strain/Indicator: TA1535, Metabolic Activation: Rat, Liver, S9, Sodium phenobarbital and 5,6-benzoflavone, Method: Preincubation) was “inactive; negative”. For the same compound, the mutagenic call (Test System: Ames Salmonella typhimurium, Strain/Indicator: TA1537, Metabolic Activation: None, Method: Preincubation) was “inactive; negative”, the mutagenic call (Test System: Ames Salmonella typhimurium, Strain/Indicator: TA1537, Metabolic Activation: Rat, Liver, S9, Sodium phenobarbital and 5,6-benzoflavone, Method: Preincubation) was “inactive; negative” and the mutagenic call (Test System: CHINESE HAMSTER V-79, Strain/Indicator: V-79/6-THIOGUANINE, Metabolic Activation: NONE) was “active; positive”. For the same compound, the mutagenic call (Test System: E. coli, Strain/Indicator: WP2uvrA/pKM101, Metabolic Activation: None, Method: Preincubation) was “inactive; negative”, the mutagenic call (Test System: E. coli, Strain/Indicator: WP2uvrA/pKM101, Metabolic Activation: Rat, Liver, S9, Sodium phenobarbital and 5,6-benzoflavone, Method: Preincubation) was “inactive; negative” and the mutagenic call (Test System: E. coli, Strain/Indicator: Wp2uvrA/pKM101, Metabolic Activation: None, Method: Preincubation) was “inactive; negative”. The mutagenic call (Test System: E. coli, Strain/Indicator: Wp2uvrA/pKM101, Metabolic Activation: Rat, Liver, S9, Sodium phenobarbital and 5,6-benzoflavone, Method: Preincubation) was “inactive; negative”, the mutagenic call (Test System: MOUSE LYMPHOMA, Strain/Indicator: L5178Y (TK+/TK-), Metabolic Activation: NONE, Method: SUSPENSION/PLATE) was “active; positive” and the mutagenic call (Test System: UDS SYRIAN HAMSTER EMBRYO (SHE) CELLS, Strain/Indicator: THY INCORP, Metabolic Activation: NONE, Method: LIQUID SCINTILLATION COUNTING) was “active; positive”.

O=Nc1c(-c2ccc([N+](=O)[O-])cc2)nc2sccn12 was tested, and the mutagenic call (Test System: AMES SALMONELLA TYPHIMURIUM, Strain/Indicator: TA98, Metabolic Activation: NONE, Method: STANDARD PLATE) was “active; positive”, the mutagenic call [3] was “active; positive” and the mutagenic call (Test System: AMES SALMONELLA TYPHIMURIUM, Strain/Indicator: TA1535, Metabolic Activation: NONE, Method: STANDARD PLATE) was “active; positive”. For the same compound, the mutagenic call [4] was “active; positive” and the mutagenic call (Test System: AMES SALMONELLA TYPHIMURIUM, Strain/Indicator: TA1538, Metabolic Activation: NONE, Method: STANDARD PLATE) was “active; positive”.

For CC1CCC(C(C)C)C(O)C1 (stereo not drawn), the mutagenic call (End Point: IN VITRO CHROMOSOMAL ABERRATIONS, Test System: CHO CELLS, Metabolic Activation: NONE) was “active; positive” and the mutagenic call (End Point: IN VITRO CHROMOSOMAL ABERRATIONS, Test System: TK6 HUMAN LYMPHOBLASTS, Metabolic Activation: NONE) was “active; positive”.
